How the values were obtained:
TNFα = TNFα inhibitory ability by cellular inflammatory response (supernatant, antibody-coated plate), Raw264.7 cells; type: cell-based; settings: Mus musculus, 1 μM compound 24 hours, then 100 ng/ml LPS 24 hours, supernatant protein
Experimental: Evaluation of TNFα inhibitory ability by cellular inflammatory response
(§1) In order to identify inhibition of p-p38 MAPK, inhibition of p38 MAPK was identified after treating each compound to Raw264.7 cells obtained by converting macrophages that induces inflammation according to p-p38 MAPK activity cancerous cells. Briefly, Raw264.7 cells were cultured in Dulbecco's modified Eagle Medium supplemented with 10% fetal bovine serum and penicillin/streptomycin (100 U/ml). Raw264.7 cells were treated with 1 μM of Compounds 1 to 5 according to the present disclosure in a culture dish respectively and cultured for 24 hours in a CO2 incubator, and then treated with 100 ng/ml of LPS, followed by additional culture for 24 hours in a CO2 incubator.
After the cell culture was completed according to the experimental conditions, the supernatant was obtained and centrifuged for 3 minutes at 1200 rpm. The centrifuged supernatant was dispensed into an antibody-coated plate, reacted at room temperature for 2 hours, and washed with PBS-T (0.5% tween 20 in PBS). After dispensing detection antibody including HRP, a reaction was performed at room temperature for 1 hour, and the amount of protein was checked at a wavelength of 450 nm, the results of which are shown in Table 7 below.

p38 alpha = p38 alpha (Homo sapiens (Human), UniProt Q16539); experiment: p38α MAPK inhibitory ability (peptide/kinase mixture, development reagent, 445/520 nm); type: biochemical; settings: 1 hour at room temperature
Sequence of p38 alpha (Q16539 whole entry): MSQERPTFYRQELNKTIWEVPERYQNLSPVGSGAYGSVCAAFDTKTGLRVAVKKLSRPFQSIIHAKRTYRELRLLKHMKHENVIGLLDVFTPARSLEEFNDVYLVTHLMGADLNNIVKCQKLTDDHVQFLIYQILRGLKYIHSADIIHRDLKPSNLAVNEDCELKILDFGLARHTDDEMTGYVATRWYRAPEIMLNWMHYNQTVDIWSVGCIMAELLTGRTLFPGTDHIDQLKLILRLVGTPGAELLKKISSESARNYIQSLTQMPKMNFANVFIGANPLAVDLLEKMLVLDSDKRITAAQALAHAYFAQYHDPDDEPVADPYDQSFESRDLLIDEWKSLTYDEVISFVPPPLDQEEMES
Experimental: Evaluation of p38a mitogen-activated protein kinase (MAPK) inhibitory ability
To determine the ability to inhibit p38 MAPK, Compounds 1 to 5 were diluted to determine the inhibitory effect depending on a concentration. Briefly, the compounds were diluted at concentrations of 1000, 333, 111, 37.0, 12.3, 4.12, 1.37, 0.457, 0.152, and 0.0495 nM, respectively, and then a peptide/kinase mixture (final 7.07-28.3 ng p38 alpha, 2 μM serine/threonine 15, 50 mM HEPES pH 7.0, 0.01% NaN3) and ATP solution were added respectively. After reacting at room temperature for 1 hour, a development reagent was added, followed by a reaction again at room temperature for 1 hour.

IL-1β mRNA [1] = experiment: Cytokine mRNA expression inhibitory ability, IL-1β, LPS-treated Raw264.7 cells; type: cell-based; settings: 1 μM compound 24 hours, then 100 ng/ml LPS 24 hours
Experimental: (§2) Evaluation of cytokine mRNA expression inhibitory ability according to inflammatory response
as §1
(§3) After cell culture was terminated according to the experimental conditions, cells were washed with cold phosphate buffered saline (PBS). The cells were then collected and centrifuged at 1200 rpm for 3 minutes. RNA was extracted according to the method provided in the Hybrid-R total RNA purification kit (GeneAll, 305-101). After measuring the concentration and purity of RNA using Nanodrop, cDNA was synthesized according to the method provided in TOPscript RT DryMIX (Enzynomics, RT200). After a reaction at 95° C. for 3 minutes using SYBR Green Mix along with primer, cDNA was subjected to repetitive reactions 30 times at 95° C. for 10 seconds, at 55° C. for 10 seconds, and at 72° C. for 30 seconds to determine the RNA expression level. The results are shown in Tables 5 and 6 below and FIGS. 1 and 2.

TNFα mRNA [2] = experiment: Cytokine mRNA expression inhibitory ability, TNFα, LPS-treated Raw264.7 cells; type: cell-based; settings: 1 μM compound 24 hours, then 100 ng/ml LPS 24 hours
Experimental: as §2, §1, §3

p-p38 MAPK [3] = molecular target: T1, p-p38 MAPK (Mus musculus (Mouse), UniProt P47811); experiment: p38 MAPK protein inhibitory ability in cells (p-p38 immunoblot, LPS-treated Raw264.7); type: cell-based; settings: Raw264.7 cells, 1 μM compound 24 hours, then 100 ng/ml LPS 6 hours
T1 sequence (P47811 whole entry): as the sequence (Q16539 whole entry) above, with L48H, T263A counted along it
Experimental: Evaluation of p38 MAPK protein inhibitory ability in cells
as §1, with “Raw264.7 cells which are obtained by” for “Raw264.7 cells obtained by”, “MAPK activity into cancerous cells.” for “MAPK activity cancerous cells.”, “culture for 6 hours in” for “culture for 24 hours in”
(§4) After cell culture was terminated according to the experimental conditions, cells were washed with cold phosphate buffered saline (PBS). The cells were then collected and centrifuged at 1200 rpm for 3 minutes. The pellet was lysed with 2X sample buffer (1M Tris-HCl pH 6.8, 50% glycerol, 10% SDS, 2-mercaptoethanol, 1% bromophenol blue) and boiled at 100° C. for 10 minutes. The prepared protein samples were subjected to sodium dodecyl sulfate poly acrylamide gel electrophoresis and transferred to PVDF membrane (Millipore). For a specific binding reaction between the protein in the PVDF membrane and antibody, blocking was performed in a 5% bovine serum albumin (BSA, RMbio) solution. Subsequently, the BSA solution was discarded, and the membrane was washed with PBS-T (0.5% Tween 20 in PBS). The binding reaction of the protein in the membrane and antibody was performed overnight at 4° C. and washed again with PBS-T. Finally, a secondary antibody (Cell signaling Technology) conjugated with horse radish peroxidase (HRP) was diluted in PBS-T and reacted at room temperature for 2 hours. Luminata Forte HRP substrate (Millipore) was used to determine the amount of protein in the membrane, the results of which are shown in Table 4 below.

p-p38 MAPK [4] = molecular target: p-p38 MAPK (Homo sapiens (Human), UniProt Q16539); experiment: p38 MAPK protein inhibitory ability in brain-derived cells (p-p38 immunoblot, SH-SY5Y); type: cell-based
Sequence of p-p38 MAPK (Homo sapiens (Human), UniProt Q16539) (Q16539 whole entry): as the sequence (Q16539 whole entry) above
Experimental: Evaluation of p38 MAPK protein inhibitory ability in brain-derived cells
In order to identify inhibition of p-p38 MAPK in brain cells, the inhibition of p38 MAPK was identified by inducing inflammation after treating each compound to SH-SYSY cells obtained by converting human neurons into cancerous cells. In short, SH-SY5Y cells were cultured in Minimum essential medium/Eagle's balanced salts supplemented with 10% fetal bovine serum and penicillin/streptomycin (100 U/ml). SH-SY5Y cells were treated with 1 μM of Compounds 4 and 6 according to the present disclosure in a culture dish respectively and cultured for 24 hours in a CO2 incubator, and then treated with 1000 ng/ml of LPS, followed by additional culture for 6 hours in a CO2 incubator.
as §4, with “The cells in the sediment were” for “The pellet was”, “Table 8” for “Table 4”

IL-1β mRNA [5] = experiment: Cytokine mRNA expression inhibitory ability, IL-1β, LPS-treated BV2 cells; type: cell-based; settings: 1 μM compound 24 hours, then 1000 ng/ml LPS 24 hours
Experimental: (§5) Evaluation of cytokine mRNA expression inhibitory ability by inflammatory response
(§6) In order to identify inhibition of p-p38 MAPK, the inhibition of p38 MAPK was identified by treating each compound to BV2 cells obtained by converting microglia that induces inflammation according to p-p38 MAPK activity in the brain into cancerous cells. Briefly, BV2 cells were cultured in Dulbecco's modified Eagle Medium supplemented with 10% fetal bovine serum and penicillin/streptomycin (100 U/ml). BV2 cells were treated with 1 μM of Compounds 4 to 6 according to the present disclosure in a culture dish respectively and cultured for 24 hours in a CO2 incubator, and then treated with 1000 ng/ml of LPS, followed by additional culture for 24 hours in a CO2 incubator.
(§7) After the cell culture was completed according to the experimental conditions, washing was performed with cold phosphate buffered saline (PBS). The cells were then collected and centrifuged at 1200 rpm for 3 minutes. RNA was extracted according to the method provided in the Hybrid-R total RNA purification kit (GeneAllR), 305-101). After measuring the concentration and purity of RNA using Nanodrop, cDNA was synthesized according to the method provided in TOPscript RT DryMIX (Enzynomics, RT200). […]

IL-6 mRNA = experiment: Cytokine mRNA expression inhibitory ability, IL-6, LPS-treated BV2 cells; type: cell-based; settings: 1 μM compound 24 hours, then 1000 ng/ml LPS 24 hours
Experimental: as §5, §6, §7

p-p38 MAPK [6] = molecular target: T1, p-p38 MAPK; experiment: p38 MAPK protein inhibitory ability in normal brain cells (p-p38 immunoblot, primary neurons); type: cell-based, ICR mice
Excerpt: Evaluation of p38 MAPK protein inhibitory ability in normal brain cells
In order to identify inhibition of p-p38 MAPK in normal cells rather than cancer cells, the inhibition of p38 MAPK was identified by inducing inflammation after treating neuron cells obtained from cerebrum of ICR mice with each compound. In short, neurons were collected from the cerebrum of the embryos of ICR mice 17-18 days after gestation and cultured for 7 days in a neurobasal medium supplemented with 2% B27 supplements, 2 mM glutamine, and penicillin/streptomycin (100 U/ml). Primary neurons were treated with 1 μM of Compounds 4 and 6 according to the present disclosure in a culture dish respectively and cultured for 24 hours in a CO2 incubator, and then treated with 1000 ng/ml of LPS, followed by additional culture for 6 hours in a CO2 incubator.
as §4, with “After the” for “After”, “conditions, washing was performed” for “conditions, cells were washed”, “The cells in the sediment were” for “The pellet was”, “reaction between” for “reaction of”, “Table 9” for “Table 4”

TNFα mRNA [7] = experiment: Cytokine mRNA expression inhibitory ability, TNFα, LPS-treated BV2 cells; type: cell-based; settings: 1 μM compound 24 hours, then 1000 ng/ml LPS 24 hours
Experimental: as §5, §6, §7

IC50 (p38 alpha) [nM]	inhibition at 1 µM (p-p38 MAPK [3]) [%]	Structure (SMILES)	inhibition at 1 µM (TNFα) [%]	IL-1β mRNA inhibition (IL-1β mRNA [1]) [%]	TNFα mRNA inhibition (TNFα mRNA [2]) [%]	p38 phosphorylation in cells derived from human (result in words) (p-p38 MAPK [4]; 1 μM)	inhibition at 1 µM (p-p38 MAPK [4]; 1 μM compound 24 hours, then 1000 ng/ml LPS 6 hours) [%]	IL-1β mRNA inhibition (IL-1β mRNA [5]) [%]	IL-6 mRNA inhibition (IL-6 mRNA) [%]	p38 phosphorylation due to inflammation in normal cells (result in words) (p-p38 MAPK [6]; primary mouse neurons, 1 μM)	inhibition at 1 µM (p-p38 MAPK [6]; primary neurons from cerebrum of ICR mouse embryos, 1 μM compound 24 hours, then 1000 ng/ml LPS 6 hours) [%]	TNFα mRNA inhibition (TNFα mRNA [7]) [%]
22.3	11.3	Cc1c(F)cc(C(=O)NC2CC2)cc1-c1ccc(C(=O)c2ccc(OCC(O)CO)cc2)cn1 (stereo not drawn) [Compound 1, N-cyclopropyl-3-(5-(4-(2,3-dihydroxypropoxy)benzoyl)pyridin-2-yl)-5-fluoro-4-methylbenzamide]	22.1	21.4	38.1	–	–	–	–	–	–	–
34.1	69	O=C(NC1CC1)c1ccc(Cl)c(-c2ccc(C(=O)c3c[nH]c4ccccc34)cc2)c1 [Compound 2, 6-chloro-N-cyclopropyl-4′-(1H-indole-3-carbonyl)-[1,1′-biphenyl]-3-carboxamide]	68.5	24.4	37.6	–	–	–	–	–	–	–
34.3	39.7	Cc1c(F)cc(C(=O)NC2CC2)cc1-c1ccc(C(=O)c2c[nH]c3cc(OCC(O)CO)ccc23)cn1 (stereo not drawn) [Compound 3, N-cyclopropyl-3-(5-(6-(2,3-dihydroxypropoxy)-1H-indole-3-carbonyl)pyridin-2-yl)-5-fluoro-4-methylbenzamide]	16.7	12.3	39.2	–	–	–	–	–	–	–
–	–	Cc1c(F)cc(C(=O)NC2CC2)cc1-c1ccc(C(=O)c2cn(CC(O)CO)c3ccccc23)cn1 (stereo not drawn) [Compound 6, N-cyclopropyl-3-(5-(1-(2,3-dihydroxypropyl)-1H-indole-3-carbonyl)pyridin-2-yl)-5-fluoro-4-methylbenzamide]	–	–	–	effectively inhibited p38 phosphorylation	22.8	12.6	14.4	effectively inhibited p38 phosphorylation	60.7	15.7

Structure (SMILES)	IC50 (p38 alpha) [nM]	inhibition at 1 µM (p-p38 MAPK [3]) [%]	inhibition at 1 µM (TNFα) [%]	IL-1β mRNA inhibition (IL-1β mRNA [1]) [%]	TNFα mRNA inhibition (TNFα mRNA [2]) [%]	p38 phosphorylation in cells derived from human (result in words) (p-p38 MAPK [4]; 1 μM)	inhibition at 1 µM (p-p38 MAPK [4]; 1 μM compound 24 hours, then 1000 ng/ml LPS 6 hours) [%]	IL-1β mRNA inhibition (IL-1β mRNA [5]) [%]	IL-6 mRNA inhibition (IL-6 mRNA) [%]	p38 phosphorylation due to inflammation in normal cells (result in words) (p-p38 MAPK [6]; primary mouse neurons, 1 μM)	inhibition at 1 µM (p-p38 MAPK [6]; primary neurons from cerebrum of ICR mouse embryos, 1 μM compound 24 hours, then 1000 ng/ml LPS 6 hours) [%]	TNFα mRNA inhibition (TNFα mRNA [7]) [%]
Cc1c(F)cc(C(=O)NC2CC2)cc1-c1ccc(C(=O)c2cn(Cc3ccccc3)c3ccccc23)cn1 [Compound 5, 3-(5-(1-benzyl-1H-indole-3-carbonyl)pyridin-2-yl)-N-cyclopropyl-5-fluoro-4-methylbenzamide]	193	52.8	23.8	3.2	4.1	–	–	–	–	–	–	–

Source: patent US20240270713A1, “NOVEL COMPOUND EXHIBITING THERAPEUTIC EFFECT ON INFLAMMATORY DISEASE AS P38 MAP KINASE INHIBITOR” (PRAZERTHERAPEUTICS INC., priority 2021, published 2024)
